Source: ChEMBL document CHEMBL5715952 (Oncotarget, 2015)
Activity calls are given as the source filed them. The calls are words filed in the database; no cut-off is given here.

Tests used:
RPMI-8226 [1] = experiment: Synergistic antiproliferative activity against wild-type human RPMI-8226 cells assessed as reduction in cell viability at ED50 incubated for 72 hrs in presence of bortezomib by MTS assay; assay type: functional
[2] = Synergistic antiproliferative activity against human ANBL-6 BR resistant cells assessed as reduction in cell viability at ED50 incubated for 72 hrs in presence of bortezomib by MTS assay; assay type: functional
RPMI-8226 [3] = experiment: Synergistic antiproliferative activity against wild-type human RPMI-8226 cells assessed as reduction in cell viability at ED75 incubated for 72 hrs in presence of bortezomib by MTS assay; assay type: functional
[4] = Synergistic antiproliferative activity against human melphalan-resistant RPMI-8226 cells assessed as reduction in cell viability at ED75 incubated for 72 hrs in presence of bortezomib by MTS assay; assay type: functional, Melphalan-resistant RPMI-8226 cell
ANBL-6 [5] = experiment: Synergistic antiproliferative activity against wild-type human ANBL-6 cells assessed as reduction in cell viability at ED75 incubated for 72 hrs in presence of bortezomib by MTS assay; assay type: functional
[6] = test system: Bortezomib-resistant ANBL6; experiment: Synergistic antiproliferative activity against human bortezomib-resistant ANBL6 cells assessed as reduction in cell viability at ED75 incubated for 72 hrs in presence of bortezomib by MTS assay; assay type: functional
RPMI-8226 [7] = experiment: Synergistic antiproliferative activity against wild-type human RPMI-8226 cells assessed as reduction in cell viability at ED90 incubated for 72 hrs in presence of bortezomib by MTS assay; assay type: functional
[8] = Synergistic antiproliferative activity against human melphalan-resistant RPMI-8226 cells assessed as reduction in cell viability at ED90 incubated for 72 hrs in presence of bortezomib by MTS assay; assay type: functional, Melphalan-resistant RPMI-8226 cell
ANBL-6 [9] = experiment: Induction of apoptosis in wild-type human ANBL-6 cells assessed as late apoptosis at 40 nM incubated for 72 hrs by annexin V and 7-AAD staining by flow cytometry analysis (Rvb=26 %); assay type: functional
ANBL-6 [10] = experiment: Induction of apoptosis in wild-type human ANBL-6 cells assessed as late apoptosis at 1600 nM incubated for 72 hrs by annexin V and 7-AAD staining by flow cytometry analysis (Rvb=26 %); assay type: functional
ANBL-6 [11] = experiment: Synergistic apoptosis activity in wild-type human ANBL-6 cells assessed as late apoptosis at 1600 nM incubated for 72 hrs in the presence of BTZ by annexin V and 7-AAD staining by flow cytometry analysis (Rvb=26 %); assay type: functional
ANBL-6 [12] = experiment: Induction of apoptosis in wild-type human ANBL-6 cells assessed as early apoptosis at 40 nM incubated for 72 hrs by annexin V and 7-AAD staining by flow cytometry analysis (Rvb=14 %); assay type: functional
ANBL-6 [13] = experiment: Induction of apoptosis in wild-type human ANBL-6 cells assessed as early apoptosis at 1600 nM incubated for 72 hrs by annexin V and 7-AAD staining by flow cytometry analysis (Rvb=14 %); assay type: functional
ANBL-6 [14] = experiment: Synergistic apoptosis activity in wild-type human ANBL-6 cells assessed as early apoptosis at 1600 nM incubated for 72 hrs in the presence of BTZ by annexin V and 7-AAD staining by flow cytometry analysis (Rvb=14 %); assay type: functional
[15] = test system: Bortezomib-resistant ANBL6; experiment: Induction of apoptosis in human bortezomib-resistant ANBL6 cells assessed as viable at 160 nM incubated for 72 hrs by annexin V and 7-AAD staining by flow cytometry analysis (Rvb=80 %); assay type: functional
[16] = test system: Bortezomib-resistant ANBL6; experiment: Induction of apoptosis in human bortezomib-resistant ANBL6 cells assessed as viable at 1600 nM incubated for 72 hrs by annexin V and 7-AAD staining by flow cytometry analysis (Rvb=80 %); assay type: functional
[17] = test system: Bortezomib-resistant ANBL6; experiment: Induction of apoptosis in human bortezomib-resistant ANBL6 cells assessed as late apoptosis at 160 nM incubated for 72 hrs by annexin V and 7-AAD staining by flow cytometry analysis (Rvb=5 %); assay type: functional
[18] = test system: Bortezomib-resistant ANBL6; experiment: Synergistic apoptosis activity in human bortezomib-resistant ANBL6 cells assessed as late apoptosis at 1600 nM incubated for 72 hrs in the presence of BTZ by annexin V and 7-AAD staining by flow cytometry analysis (Rvb=5 %); assay type: functional
[19] = test system: Bortezomib-resistant ANBL6; experiment: Induction of apoptosis in human bortezomib-resistant ANBL6 cells assessed as early apoptosis at 160 nM incubated for 72 hrs by annexin V and 7-AAD staining by flow cytometry analysis (Rvb=15 %); assay type: functional
[20] = test system: Bortezomib-resistant ANBL6; experiment: Induction of apoptosis in human bortezomib-resistant ANBL6 cells assessed as early apoptosis at 1600 nM incubated for 72 hrs by annexin V and 7-AAD staining by flow cytometry analysis (Rvb=15 %); assay type: functional
[21] = test system: Bortezomib-resistant ANBL6; experiment: Synergistic apoptosis activity in human bortezomib-resistant ANBL6 cells assessed as early apoptosis at 1600 nM incubated for 72 hrs in the presence of BTZ by annexin V and 7-AAD staining by flow cytometry analysis (Rvb=15 %); assay type: functional
ANBL-6 [22] = experiment: Synergistic apoptosis activity in wild-type human ANBL-6 cells assessed as early apoptosis at 1600 nM incubated for 48 hrs in the presence of BTZ by annexin V and 7-AAD staining by flow cytometry analysis; assay type: functional
ANBL-6 [23] = experiment: Synergistic apoptosis activity in wild-type human ANBL-6 cells assessed as early apoptosis at 1600 nM incubated for 72 hrs in the presence of BTZ by annexin V and 7-AAD staining by flow cytometry analysis; assay type: functional
[24] = test system: Bortezomib-resistant ANBL6; experiment: Synergistic apoptosis activity in human bortezomib-resistant ANBL6 cells assessed as early apoptosis at 1600 nM incubated for 24 hrs in the presence of BTZ by annexin V and 7-AAD staining by flow cytometry analysis; assay type: functional
[25] = test system: Bortezomib-resistant ANBL6; experiment: Synergistic apoptosis activity in human bortezomib-resistant ANBL6 cells assessed as early apoptosis at 1600 nM incubated for 48 hrs in the presence of BTZ by annexin V and 7-AAD staining by flow cytometry analysis; assay type: functional
[26] = test system: Bortezomib-resistant ANBL6; experiment: Synergistic apoptosis activity in human bortezomib-resistant ANBL6 cells assessed as early apoptosis at 1600 nM incubated for 72 hrs in the presence of BTZ by annexin V and 7-AAD staining by flow cytometry analysis; assay type: functional
[27] = target: T1, Bromodomain and extra-terminal motif (BET) (Homo sapiens) (UniProt P25440+O60885+Q58F21+Q15059); settings: ANBL-6, dose lower 40.0 nM, dose upper […]
[28] = target: T1, Bromodomain and extra-terminal motif (BET) (Homo sapiens); settings: ANBL-6, dose lower 40.0 nM, dose upper […]; remark: listed apart in the source
[29] = target: T1, Bromodomain and extra-terminal motif (BET) (Homo sapiens); settings: Bortezomib-resistant ANBL6 cell, dose lower 40.0 nM, dose upper […]
[30] = target: T1, Bromodomain and extra-terminal motif (BET) (Homo sapiens); settings: Bortezomib-resistant ANBL6 cell, dose lower 40.0 nM, dose upper […]; remark: listed apart in the source
[31] = target: T1, Bromodomain and extra-terminal motif (BET) (Homo sapiens); settings: ANBL-6, dose lower 40.0 nM, dose upper […]; remark: listed apart in the source
[32] = target: T1, Bromodomain and extra-terminal motif (BET) (Homo sapiens); settings: Bortezomib-resistant ANBL6 cell, dose lower 40.0 nM, dose upper […]; remark: listed apart in the source

## Cc1sc2c(c1C)C(c1ccc(Cl)cc1)=N[C@@H](CC(N)=O)c1nnc(C)n1-2
RPMI-8226 [1]
  CI: 1.367
[2]
  CI: 0.718
RPMI-8226 [3]
  CI: 1.15
[4]
  CI: 0.693
ANBL-6 [5]
  CI: 0.692
[6]
  CI: 0.494
RPMI-8226 [7]
  CI: 1.041
[8]
  CI: 0.569
ANBL-6 [9]
  Activity: 28%
ANBL-6 [10]
  Activity: 31%
ANBL-6 [11]
  Activity: 10%
ANBL-6 [12]
  Activity: 12%
ANBL-6 [13]
  Activity: 31%
ANBL-6 [14]
  Activity: 84%
[15]
  Activity: 78%
[16]
  Activity: 54%
[17]
  Activity: 4%
[18]
  Activity: 10%
[19]
  Activity: 18%
[20]
  Activity: 30%
[21]
  Activity: 67%
ANBL-6 [22]
  CI: 0.24
ANBL-6 [23]
  CI: 0.44
[24]
  CI: 0.99
[25]
  CI: 0.77
[26]
  CI: 0.87
[27]
  inhibition: Active
[28]
  inhibition: Dose-Dependent Effect
[29]
  inhibition: Active
[30]
  inhibition: Dose-Dependent Effect
[31]
  inhibition: inactive
[32]
  inhibition: inactive
